The values below come from article PMC11637378, “Optogenetic screening of MCT1 activity implicates a cluster of non-steroidal anti-inflammatory drugs (NSAIDs) as inhibitors of lactate transport” (PLOS ONE, 2024).

The test system of test [1] is parent strain (SAWy518).
Test [2] addresses neurokinin 1 (NK1) receptor. Also on record: method as in not given. As to conditions: library annotation; ref not given; cited from earlier work.
Test [3] addresses neurokinin 1 (NK1) receptor. The note with it: library annotation; cited from earlier work.
Test [4] addresses neurokinin 1 (NK1) receptor. As to conditions: library annotation; cited from earlier work. The source holds these as a separate data set.
Test [5] has as its system parent strain (SAWy518). The experiment in a line: microbe, parasite or virus in culture. Also on record: species or system Saccharomyces cerevisiae SAWy518; Off-target growth counter-screen, OD600 as per cent of untreated wells, strain lacking MCT1. As to conditions: 18.5 h; sheet Primary Screen - final;; off-target growth of parent strain, about 18 h.
Test [6] relates to survivin. The note with it: NOTES column annotation; cited from earlier work.
In test [7] the test system is survivin. The note with it: library annotation; cited from earlier work.
In test [8] the test system is survivin. The note with it: library annotation; cited from earlier work. The source holds these as a separate data set.

Where two headings read alike, the source gives them in different places.

What is called Ki is a measure of affinity in units of concentration, obtained from inhibition or displacement. What is called viability is a read-out of living cells in per cent, often relative to untreated cells. `Cc1ccccc1-c1cc(N2CCN(C)CC2)ncc1N(C)C(=O)C(C)(C)c1cc(C(F)(F)F)cc(C(F)(F)F)c1` [Netupitant]: in the test with parent strain (SAWy518) [1], the OffScreen_percentage is recorded as 103.271 percentage, the Offscreen_18hr is reported as 0.8334, the Offscreen_24hr is 0.9137 and the Offscreen_42hr amounted to 0.9839. In the test with parent strain (SAWy518) [1], the Read_percentage worked out at 103.271 percentage. For the same molecule, the inhibition constant Ki in test [2] is 0.95 nM. The Ki in test [3] was 0.95 nM. In addition, the Ki in test [4] is 0.95 nM. For the same molecule, the viability at 10 µM in the test with parent strain (SAWy518) [5] came out at 103%.

By IC50 is commonly meant the concentration needed to halve the response being measured. Consider YM155, for which, in the test with parent strain (SAWy518) [1], the OffScreen_percentage was determined as 103.73 percentage, the Offscreen_18hr is 0.8371, the Offscreen_24hr came out at 0.9154 and the Offscreen_42hr was determined as 0.9694. Besides, the Read_percentage in the test on parent strain (SAWy518) [1] was determined as 103.73. Also, the IC50 with survivin [6] was 0.54 nM. Moreover, the IC50 in the test on survivin [7] was 0.54 nM. The IC50 in the test with survivin [8] is 0.54 nM.
